# Results from patent EP0297610A1, “N-[(2,6-disubstituted)phenyl]-urea and carbamate inhibitors of acyl-CoA:cholesterol acyl-transferase” (WARNER-LAMBERT COMPANY, priority 1987, dated 1989).
# pIC50: −log10 of the molar value.
# How the values were obtained:
# [1] = target: acyl-CoA:cholesterol acyltransferase (ACAT); assay: In vitro ACAT inhibition: formation of radiolabeled cholesterol oleate from radiolabeled oleic acid in rabbit intestinal microsomes; type: biochemical; conditions: tissue preparation containing rabbit intestinal microsomes, read-out: IC₅₀
# male Sprague-Dawley rats = assay: In vivo screen PCC: total blood cholesterol in cholesterol-fed rats; conditions: one week; for % Change: change of total blood cholesterol vs control (181 mg/dl), 0.05% test drug in diet, rats; for Total Blood Cholesterol: male Sprague-Dawley rats, 0.05% test drug admixed into diet with 5.5% peanut oil, 1.5% cholesterol, 0.3%-0.5% cholic acid, Control = 181
# Excerpt: In an in vivo screen, designated PCC, male Sprague-Dawley rats (approximately 200 g body weight) are randomly divided into groups and provided ad libidum a regular chow diet (Purina No. 5002, Ralston Purina Co., 711 West Fuesser Road, Mascoutah, Illinois, 62224, USA), supplemented with 5.5% peanut oil, 1.5% choles-terol, and 0.3%-0.5% cholic acid, together with 0.05% of the test drug which is admixed into the diet. After one week the animals are etherized and a blood sample is taken from the heart and mixed with 0.14% ethylene-diamine tetraacetic acid (EDTA) to measure the total cholesterol.
pIC50 [1],Compound,% Change (male Sprague-Dawley rats) [%],Total Blood Cholesterol (male Sprague-Dawley rats)
6.74,"CCCCCCCC/C=C\CCCCCCCCNC(=O)Nc1c(C)cccc1Cl [Example 5, (Z)-N-(2-Chloro-6-methylphenyl)-N′-9-octadecenylurea]",,
6.70,"CCCCCCCCCCNC(=O)Nc1c(C)cccc1C(C)(C)C [Example 18, N-Decyl-N′-[2-(1,1-dimethylethyl)-6-methylphenyl]urea]",,
7.57,"CCCCCCCCCCCCCCNC(=O)Nc1c(C)cccc1Cl [Example 7, N-(2-Chloro-6-methylphenyl)-N′-tetradecylurea]",,
7.32,"CCCCCCCCCCCCCCCCCCNC(=O)Nc1c(C(C)C)cccc1C(C)C [Example 11, N-[2,6-bis(1-Methylethyl)phenyl]-N′-octadecylurea]",,
5.96,"CCCCCCCCCCCCCCCCCCNC(=O)Nc1c(C)cccc1Cl [Example 10, N-(2-Chloro-6-methylphenyl)-N′-octadecylurea]",,
7.72,"CCCCCCCCCCCCCCNC(=O)Nc1c(CC)cccc1C(C)C [Example 1, N-[2-Ethyl-6-(1-methylethyl)-phenyl]-N′-tetradecylurea]",-41,106 (Control = 181) mg/dl
6.40,"CCCCCCCC/C=C\CCCCCCCCNC(=O)Nc1c(Cl)cccc1Cl [Example 6, (Z)-N-(2,6-Dichlorophenyl)-N′-9-octadecenylurea]",,
6.38,"CCCCCCCCCCCCCCNC(=S)Nc1c(CC)cccc1CC [Example 12, N-(2,6-Diethylphenyl)-N′-tetradecylthiourea]",,
6.80,"CCCCCCCC/C=C\CCCCCCCCNC(=O)Nc1c(C)cccc1C [Example 4, (Z)-N-(2,6-Dimethylphenyl)-N′-9-octadecenylurea]",,
7.43,"CCCCCCCC/C=C\CCCCCCCCNC(=O)Nc1c(CC)cccc1C(C)C [Example 2, (Z)-N-[2-Ethyl-6-(1-methylethyl)-phenyl]-N′-9-octadecenylurea]",-41,107 (Control = 181) mg/dl
5.00,"CCCCCCCC/C=C\CCCCCCCCNC(=S)Nc1c(C)cccc1C [Example 3, (Z)-N-(2,6-Dimethylphenyl)-N′-9-octadecenylthiourea]",,
7.25,"CCCCCCCCCCNC(=O)Nc1c(C(C)C)cccc1C(C)C [Example 15, N-[2,6-bis(1-Methylethyl)phenyl]-N′-decylurea]",,

Compound,pIC50 [1],% Change (male Sprague-Dawley rats) [%],Total Blood Cholesterol (male Sprague-Dawley rats)
"CCCCCCCCCCC(C)(C)NC(=O)Nc1c(CC)cccc1CC [Example 19, N-(2,6-Diethylphenyl)-N′-(1.1-dimethylundecyl)urea]",7.28,-60,73 (Control = 181) mg/dl
"CCCCCCCCCCC1(NC(=O)Nc2c(CC)cccc2CC)CCCC1 [Example 21, N-(1-Decylcyclopentyl)-N′-(2.6-diethylphenyl)urea]",7.00,,
"CCCCCCCCCCC(C)(C)NC(=O)Nc1c(C(C)C)cccc1C(C)C [Example 20, N-[2.6-bis(1-Methylethyl)phenyl]-N′-(1,1-dimethylundecyl)urea]",7.35,,
"CCCCCCCCCCCCCCNC(=O)Nc1c(CC)cccc1CC [Example 8, N-(2,6-Diethylphenyl)-N′-tetra-decylurea]",7.68,,
"CCCCCCCCCCNC(=O)Nc1c(C)cccc1C(C)C [Example 17, N-Decyl-N′-[2-methyl-6-(l-methylethyl)-phenyl]urea.]",6.68,,
